Experimental data: patent US20090306218A1, “Antimicrobial formulations” (priority 2006, published 2009)
≈ marks a conversion by molar mass, not a printed value. Where two headings read alike, the source gives them in different places.

Experiments:
[1] = test system: Por. gingivalis NCTC 11834; assay: MBC assay; type: cell-based, Porphyromonas gingivalis
Procedure: (§1) (b) Minimum Bactericidal Concentration (MBC) Assay
(§2) MIC and MBC assays, as described above, were carried out using the test compounds t-butyl-p-hydroquinone (TBHQ) and bismuth subsalicylate (both ex-Sigma Aldrich). The TBHQ was dissolved in ethanol and the bismuth subsalicylate in DMSO. All the experiments were conducted in triplicate.

[2] = test system: Por. gingivalis NCTC 11834; assay: MIC assay, liquid medium; type: cell-based, Porphyromonas gingivalis
Procedure: (§3) (a) Minimum Inhibitory Concentration (MIC) Assay
(§4) This is a standard international method for quantitatively assessing the antimicrobial activity of a compound in a liquid medium. The method used a sterile 96-well microtitre plate, capable of holding about 200 μl of liquid per well. […] The culture medium was as described above.
(§5) After incubation, the microtitre plate was examined visually (with the aid of a light box) for cloudiness in each well, which would indicate microbial growth. The MIC value was recorded as the lowest concentration of test compound required to inhibit microbial growth, i.e., the lowest concentration for which the liquid in the well remained clear.
(§6) The assays were conducted in duplicate (minimum) and included both negative (culture medium with no micro-organisms) and positive (culture medium plus diluting solvent plus micro-organism) controls.
as §2

[3] = test system: P. granulosum panel strains; assay: Disc diffusion assay (DDA), panel of propionibacteria; type: cell-based, Propionibacterium granulosum; conditions: 200 μg per disc
[4] = test system: P. granulosum panel strains; assay: MIC assay, liquid medium, panel of propionibacteria; type: cell-based, Propionibacterium granulosum
[5] = test system: P. acnes PRP panel strains; assay: MBC assay, panel of propionibacteria
Procedure: (§8) This assay, normally carried out after an MIC assay, determines the minimum concentration of a compound that is lethal to the micro-organism being tested.
(§9) These samples were then individually sub-cultured on antibiotic-free agar medium, under the incubation conditions described above. Following incubation they were examined visually for microbial growth.

[6] = test system: P. acnes PRP panel strains; type: cell-based, Propionibacterium acnes; conditions: for MIC: liquid medium
[7] = test system: Propionibacterium acnes NCTC 737; assay: Disc diffusion assay (DDA); type: cell-based; conditions: P. acnes NCTC 737, 200 μg per disc
Procedure: (d) Disc Diffusion Assay (DDA)
This is an internationally recognised standard method for qualitatively assessing the antimicrobial activity of a compound.
A sterile paper disc was impregnated with a sample of the test compound in a suitable solvent and 30 minutes allowed for the solvents to evaporate (where possible). The disc was then placed on an agar plate onto which the test micro-organism had been inoculated. The plate was then incubated under the conditions described above, following which it was examined visually for signs of microbial growth. […] The diameter of this zone of “inhibition” was measured using a ProtoCOL™ automated zone sizer (Synbiosis, Cambridge, UK).
The TBHQ was dissolved in ethanol and the bismuth salts in DMSO.
All the (S)DDA experiments were conducted in triplicate.
DDA assays, as described above, were carried out using each of the test compounds individually. The quinone/bismuth salt combinations were then subjected to the SDDA assay described above.
The quinones and bismuth salts were all dissolved in DMSO.

[8] = test system: Propionibacterium acnes NCTC 737; assay: Minimum bactericidal concentration (MBC) assay; type: cell-based; conditions: P. acnes NCTC 737
Procedure: as §1
(§7) MIC, MBC and DDA assays, as described above, were carried out using the test compound t-butyl-p-hydroquinone (TBHQ) and a range of bismuth salts (all ex-Sigma Aldrich, UK).

[9] = test system: Propionibacterium acnes NCTC 737; assay: Minimum inhibitory concentration (MIC) assay, liquid medium; type: cell-based; conditions: for MIC: P. acnes NCTC 737
Procedure: as §3, §4, §5, §6, §7

[10] = test system: P. granulosum panel strains; assay: MBC assay, panel of propionibacteria
Procedure: as §8, §9

[11] = test system: P. acnes PRP panel strains; type: cell-based, Propionibacterium acnes; conditions: 200 μg per disc
[12] = P. granulosum NCTC 11865, resistance phenotype None
[13] = P. granulosum PRP-005, resistance phenotype MLSK
[14] = P. granulosum PRP-006, resistance phenotype MLS
[15] = P. granulosum PRP-019, resistance phenotype MLSK
[16] = P. granulosum PRP-021, resistance phenotype MLS
[17] = P. granulosum PRP-043, resistance phenotype MLS
[18] = P. granulosum PRP-044, resistance phenotype MLS
[19] = P. granulosum PRP-055, resistance phenotype None
[20] = P. acnes PRP-002, resistance phenotype Tet/MLS
[21] = P. acnes PRP-003, resistance phenotype Tet
[22] = P. acnes PRP-004, resistance phenotype Tet
[23] = P. acnes PRP-007, resistance phenotype Clin
[24] = P. acnes PRP-008, resistance phenotype Clin
[25] = P. acnes PRP-010, resistance phenotype MLSK
[26] = P. acnes PRP-017, resistance phenotype MLS
[27] = P. acnes PRP-023, resistance phenotype MLSK
[28] = P. acnes PRP-026, resistance phenotype MLS
[29] = P. acnes PRP-039, resistance phenotype Tet/MLS
[30] = P. acnes PRP-046, resistance phenotype None
[31] = P. acnes PRP-053, resistance phenotype Tet/MLS
[32] = P. acnes PRP-059, resistance phenotype MLS
[33] = P. acnes PRP-068, resistance phenotype Ery
[34] = P. acnes PRP-101, resistance phenotype Tet/MLS
[35] = P. acnes PRP-102, resistance phenotype Tet/MLS

Q: `CC(C)(C)c1cc(O)ccc1O` [TBHQ, t-butyl-p-hydroquinone] was tested. Which MBC [1] did it give?
A: 0.49 µg/mL (≈ 2.95 µM)

Q: What about the MIC/MBC ratio [1] of the same molecule?
A: <1

Q: And the MIC ([2]; Por. gingivalis NCTC 11834)?
A: <0.49 µg/mL

Q: What about the “activity against Por. gingivalis NCTC 11834 (in words)” value ([2]; compound alone, data of Table 8) of the same molecule?
A: active

Q: What about the “DDA (zone diameter)” value ([3]; P. granulosum NCTC 11865) of the same molecule?
A: 11.50 mm

Q: What about the “DDA (zone diameter)” value ([3]; P. granulosum PRP-005) of the same molecule?
A: 10.67 mm

Q: What about the “DDA (zone diameter)” value ([3]; P. granulosum PRP-006) of the same molecule?
A: 9.42 mm

Q: And the “DDA (zone diameter)” value ([3]; P. granulosum PRP-019)?
A: 10.36 mm

Q: What about the “DDA (zone diameter)” value ([3]; P. granulosum PRP-021) of the same molecule?
A: 0.00 mm

Q: What about the “DDA (zone diameter)” value ([3]; P. granulosum PRP-043) of the same molecule?
A: 0.00 mm

Q: What about the “DDA (zone diameter)” value ([3]; P. granulosum PRP-044) of the same molecule?
A: 0.00 mm

Q: And the “DDA (zone diameter)” value ([3]; P. granulosum PRP-055)?
A: 18.02 mm

Q: What about the MIC [4, 12] of the same molecule?
A: 3.9 µg/mL (≈ 23.5 µM)

Q: And the MIC [4, 13]?
A: 62.5 µg/mL (≈ 376 µM)

Q: What about the MIC [4, 14] of the same molecule?
A: 7.8 µg/mL (≈ 46.9 µM)

Q: What about the MIC [4, 15] of the same molecule?
A: 31.25 µg/mL (≈ 188 µM)

Q: What about the MIC [4, 16] of the same molecule?
A: 15.6 µg/mL (≈ 93.9 µM)

Q: What about the MIC [4, 17] of the same molecule?
A: 15.6 µg/mL (≈ 93.9 µM)

Q: And the MIC [4, 18]?
A: 15.6 µg/mL (≈ 93.9 µM)

Q: And the MIC [4, 19]?
A: 3.9 µg/mL (≈ 23.5 µM)

Q: And the MBC [5, 20]?
A: 7.8 µg/mL (≈ 46.9 µM)

Q: And the MBC [5, 21]?
A: 7.8 µg/mL (≈ 46.9 µM)

Q: And the MBC [5, 22]?
A: 7.8 µg/mL (≈ 46.9 µM)

Q: And the MBC [5, 23]?
A: 7.8 µg/mL (≈ 46.9 µM)

Q: What about the MBC [5, 24] of the same molecule?
A: 7.8 µg/mL (≈ 46.9 µM)

Q: What about the MBC [5, 25] of the same molecule?
A: 15.6 µg/mL (≈ 93.9 µM)

Q: And the MBC [5, 26]?
A: 7.8 µg/mL (≈ 46.9 µM)

Q: And the MBC [5, 27]?
A: 7.8 µg/mL (≈ 46.9 µM)

Q: And the MBC [5, 28]?
A: 7.8 µg/mL (≈ 46.9 µM)

Q: And the MBC [5, 29]?
A: 7.8 µg/mL (≈ 46.9 µM)

Q: What about the MBC [5, 30] of the same molecule?
A: 7.8 µg/mL (≈ 46.9 µM)

Q: What about the MBC [5, 31] of the same molecule?
A: 7.8 µg/mL (≈ 46.9 µM)

Q: And the MBC [5, 32]?
A: 7.8 µg/mL (≈ 46.9 µM)

Q: What about the MBC [5, 33] of the same molecule?
A: 7.8 µg/mL (≈ 46.9 µM)

Q: What about the MBC [5, 34] of the same molecule?
A: 7.8 µg/mL (≈ 46.9 µM)

Q: And the MBC [5, 35]?
A: 15.6 µg/mL (≈ 93.9 µM)

Q: And the MIC [6, 20]?
A: 3.9 µg/mL (≈ 23.5 µM)

Q: What about the MIC [6, 21] of the same molecule?
A: 7.8 µg/mL (≈ 46.9 µM)

Q: What about the MIC [6, 22] of the same molecule?
A: 1.95 µg/mL (≈ 11.7 µM)

Q: And the MIC [6, 23]?
A: 3.9 µg/mL (≈ 23.5 µM)

Q: And the MIC [6, 24]?
A: 3.9 µg/mL (≈ 23.5 µM)

Q: And the MIC [6, 25]?
A: 3.9 µg/mL (≈ 23.5 µM)

Q: What about the MIC [6, 26] of the same molecule?
A: 3.9 µg/mL (≈ 23.5 µM)

Q: And the MIC [6, 27]?
A: 3.9 µg/mL (≈ 23.5 µM)

Q: What about the MIC [6, 28] of the same molecule?
A: 3.9 µg/mL (≈ 23.5 µM)

Q: And the MIC [6, 29]?
A: 3.9 µg/mL (≈ 23.5 µM)

Q: What about the MIC [6, 30] of the same molecule?
A: 1.95 µg/mL (≈ 11.7 µM)

Q: What about the MIC [6, 31] of the same molecule?
A: 3.9 µg/mL (≈ 23.5 µM)

Q: What about the MIC [6, 32] of the same molecule?
A: 3.9 µg/mL (≈ 23.5 µM)

Q: And the MIC [6, 33]?
A: 3.9 µg/mL (≈ 23.5 µM)

Q: What about the MIC [6, 34] of the same molecule?
A: 3.9 µg/mL (≈ 23.5 µM)

Q: What about the MIC [6, 35] of the same molecule?
A: 7.8 µg/mL (≈ 46.9 µM)

Q: And the “activity against the panel of propionibacteria (in words)” value ([6]; P. acnes and P. granulosum strains of Tables 6 and 7)?
A: active against all of the propionibacterial strains tested

Q: What about the “DDA (zone of inhibition diameter)” value ([7]; Table 2) of the same molecule?
A: 11.04 mm

Q: And the “DDA (zone of inhibition diameter)” value ([7]; separate experiment, Table 4)?
A: 14.68 mm

Q: What about the MBC ([8]; Table 1) of the same molecule?
A: 7.8 µg/mL (≈ 46.9 µM)

Q: What about the MIC/MBC ratio ([8]; Table 1) of the same molecule?
A: 1

Q: And the MBC ([8]; separate experiment, Table 3)?
A: 7.8 µg/mL (≈ 46.9 µM)

Q: And the MIC/MBC ratio ([8]; separate experiment, Table 3)?
A: 1

Q: And the MIC ([9]; Table 1)?
A: 7.8 µg/mL (≈ 46.9 µM)

Q: And the MIC ([9]; separate experiment, Table 3)?
A: 7.8 µg/mL (≈ 46.9 µM)

Q: What about the “activity against P. acnes NCTC 737 (in words)” value ([9]; compound alone, data of Tables 1 and 2) of the same molecule?
A: active

Q: What about the MBC [10, 12] of the same molecule?
A: 7.8 µg/mL (≈ 46.9 µM)

Q: What about the MBC [10, 13] of the same molecule?
A: 62.5 µg/mL (≈ 376 µM)

Q: What about the MBC [10, 14] of the same molecule?
A: 7.8 µg/mL (≈ 46.9 µM)

Q: And the MBC [10, 15]?
A: 31.25 µg/mL (≈ 188 µM)

Q: What about the MBC [10, 16] of the same molecule?
A: 31.25 µg/mL (≈ 188 µM)

Q: And the MBC [10, 17]?
A: 15.6 µg/mL (≈ 93.9 µM)

Q: And the MBC [10, 18]?
A: 31.25 µg/mL (≈ 188 µM)

Q: And the MBC [10, 19]?
A: 7.8 µg/mL (≈ 46.9 µM)

Q: What about the “DDA (zone diameter)” value ([11]; P. acnes PRP-002) of the same molecule?
A: 18.12 mm

Q: What about the “DDA (zone diameter)” value ([11]; P. acnes PRP-003) of the same molecule?
A: 18.12 mm

Q: What about the “DDA (zone diameter)” value ([11]; P. acnes PRP-004) of the same molecule?
A: 19.88 mm

Q: What about the “DDA (zone diameter)” value ([11]; P. acnes PRP-007) of the same molecule?
A: 12.74 mm

Q: What about the “DDA (zone diameter)” value ([11]; P. acnes PRP-008) of the same molecule?
A: 17.92 mm

Q: And the “DDA (zone diameter)” value ([11]; P. acnes PRP-010)?
A: 18.54 mm

Q: What about the “DDA (zone diameter)” value ([11]; P. acnes PRP-017) of the same molecule?
A: 13.98 mm

Q: What about the “DDA (zone diameter)” value ([11]; P. acnes PRP-023) of the same molecule?
A: 18.54 mm

Q: And the “DDA (zone diameter)” value ([11]; P. acnes PRP-026)?
A: 13.98 mm

Q: And the “DDA (zone diameter)” value ([11]; P. acnes PRP-039)?
A: 17.71 mm

Q: And the “DDA (zone diameter)” value ([11]; P. acnes PRP-046)?
A: 20.71 mm

Q: And the “DDA (zone diameter)” value ([11]; P. acnes PRP-053)?
A: 17.09 mm

Q: What about the “DDA (zone diameter)” value ([11]; P. acnes PRP-059) of the same molecule?
A: 19.88 mm

Q: What about the “DDA (zone diameter)” value ([11]; P. acnes PRP-068) of the same molecule?
A: 16.78 mm

Q: What about the “DDA (zone diameter)” value ([11]; P. acnes PRP-101) of the same molecule?
A: 12.84 mm

Q: And the “DDA (zone diameter)” value ([11]; P. acnes PRP-102)?
A: 14.50 mm
